Positions count from the first letter of the chain named. Each block holds one compound with its values, some of them ahead of it.
Columns and labels:
Format in all cases: biochemical
[1] = biological target: T1, mitochondrial carnitine/acylcarnitine transporter (CACT) (Rattus norvegicus, UniProt P97521); experiment: [3H]carnitine/carnitine antiport in proteoliposomes
T1 construct: gene Slc25a20; recombinant WT rat CACT expressed in E. coli, reconstituted in liposomes
T1 sequence (P97521 2-301): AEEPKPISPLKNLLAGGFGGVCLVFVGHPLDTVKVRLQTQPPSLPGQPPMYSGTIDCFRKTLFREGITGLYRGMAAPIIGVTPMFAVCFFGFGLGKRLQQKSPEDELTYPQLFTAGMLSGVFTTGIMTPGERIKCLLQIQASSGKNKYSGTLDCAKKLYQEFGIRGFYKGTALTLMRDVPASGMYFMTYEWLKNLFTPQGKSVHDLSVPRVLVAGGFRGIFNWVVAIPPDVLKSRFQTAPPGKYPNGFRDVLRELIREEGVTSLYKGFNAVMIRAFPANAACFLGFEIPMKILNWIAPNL

[2] = biological target: T2, mitochondrial carnitine/acylcarnitine transporter (CACT), C136S mutant (Rattus norvegicus, UniProt P97521, C136S); experiment: […] inhibition of antiport after […] omeprazole and removal of unreacted compound
T2 construct: gene Slc25a20; recombinant mutant rat CACT reconstituted in liposomes
T2 sequence (P97521 2-301 C136S): T1 sequence (P97521 2-301) with C135S

[3] = biological target: T1, mitochondrial carnitine/acylcarnitine transporter (CACT); experiment: [3H]carnitine/carnitine antiport in proteoliposomes; acid-activated omeprazole (non-activated compound inactive)
[4] = biological target: T3, mitochondrial carnitine/acylcarnitine transporter (CACT), C283A mutant (Rattus norvegicus, UniProt P97521, C283A); experiment: […] inhibition of antiport after […] omeprazole and removal of unreacted compound
T3 construct: gene Slc25a20; recombinant mutant rat CACT reconstituted in liposomes
T3 sequence (P97521 2-301 C283A): T1 sequence (P97521 2-301) with C282A

SMILES: COc1ccnc(C[S+]([O-])c2nc3ccc(OC(F)F)cc3[nH]2)c1OC (centres unmarked) [pantoprazole]
IC50 [1]: 6.4 µM

IC50 ([1]; read-out: IC50): 80 µM
SMILES: Cc1c(OCC(F)(F)F)ccnc1C[S+]([O-])c1nc2ccccc2[nH]1 (centres unmarked) [lansoprazole]

SMILES: COc1ccc2[nH]c([S+]([O-])Cc3ncc(C)c(OC)c3C)nc2c1 (centres unmarked) [omeprazole]
inhibition at 30 µM [2]: 59% | IC50 [3]: 5.4 µM | inhibition at 30 µM [4]: 53%

From paper PMC3857281, “Molecular Mechanism of Inhibition of the Mitochondrial Carnitine/Acylcarnitine Transporter by Omeprazole Revealed by Proteoliposome Assay, Mutagenesis and Bioinformatics” (PLoS ONE, 2013)
